According to patent US11236086B2, “Substituted pyrrolopyridines as inhibitors of activin receptor-like kinase” (BLUEPRINT MEDICINES CORPORATION, priority 2017, dated 2022):

Key:
[1] = target: T1, ALK2R206H (mutant ALK2, N-terminally tagged with GST) (Homo sapiens, UniProt Q04771, R206H); test: ALK binding assay (LANTHASCREEN TR-FRET competitive binding, displacement of Kinase Tracer 178); conditions: read-out: Binding Assay (IC50 class)
T1 construct: purchased Carna Bioscience or ThermoFisher 09-148 or PV6232
T1 sequence (Q04771 21-509 R206H): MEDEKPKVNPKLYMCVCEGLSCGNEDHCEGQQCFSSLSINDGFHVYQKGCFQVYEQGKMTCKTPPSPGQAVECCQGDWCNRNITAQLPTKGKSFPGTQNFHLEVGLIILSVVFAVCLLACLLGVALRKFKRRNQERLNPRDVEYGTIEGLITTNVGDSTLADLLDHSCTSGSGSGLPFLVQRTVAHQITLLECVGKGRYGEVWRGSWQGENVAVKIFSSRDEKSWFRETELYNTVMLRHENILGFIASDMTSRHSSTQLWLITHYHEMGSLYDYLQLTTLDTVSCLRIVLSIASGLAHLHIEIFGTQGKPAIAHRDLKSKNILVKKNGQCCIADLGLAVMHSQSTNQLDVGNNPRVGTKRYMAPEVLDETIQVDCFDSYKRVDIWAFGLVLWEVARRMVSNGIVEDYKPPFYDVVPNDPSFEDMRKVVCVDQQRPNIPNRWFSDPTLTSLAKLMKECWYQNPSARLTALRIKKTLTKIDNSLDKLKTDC
Outline: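 Competitive displacement of Kinase Tracer 178 (50 nM) from N-terminally GST-tagged mutant ALK2 R206H (2-5 nM) by compound, detected by TR-FRET with Eu-anti-GST antibody (4-10 nM). 30 min room temperature incubation, 1% DMSO final; normalized signal fitted to 4-parameter log dose response for IC50.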

human ALK2 R206H = target: T2, human ALK2 R206H (Homo sapiens, UniProt Q04771, R206H); test: Cell-based ALK2-R206H cell activity assay (Smad1-Ser463/Ser465 phosphorylation by AlphaLISA in HEK293-ALK2-R206H cells); conditions: phospho-Smad1 AlphaLISA, read-out: Cell Line (Cell Assay, IC50 class)
T2 construct: expressed in transfected cells; host or cells: HEK293 (ATCC CRL1573), lentivirus transduction, blasticidin selection
T2 sequence (Q04771 21-509 R206H): T1 sequence (Q04771 21-509 R206H)
Outline: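 IC50 comes from a 10-point curve, scaled between DMSO and 1 μM LDN193189 controls, of lysate phospho-Smad1 (Ser463/465) measured by AlphaLISA. Compounds (top 10 μM or 1 μM, 3-fold steps, duplicates) were given 2-3 h to serum-starved HEK293 cells that stably express FLAG-tagged human ALK2 R206H.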

SMILES	IC50 [1] [µM]	IC50 (human ALK2 R206H) [µM]
COC1(c2ccc(-c3cc4c(N5CCN(C(=O)OC6COC6)CC5)ccnc4[nH]3)c(C#N)c2)CCOCC1 [Compound 472]	≤ 0.01	≤ 0.1
CC(C)N1CCC(C)(c2ccc(-c3cc4c(N5CCN(C(=O)OC6COC6)CC5)ccnc4[nH]3)cc2)CC1 [Compound 473]	≤ 0.01	≤ 0.1
CS(=O)(=O)N1CCc2nc(-c3cc4c(N5CCN(C(=O)OC6COC6)CC5)ccnc4[nH]3)sc2C1 [Compound 474]	≤ 0.01	≤ 0.1
CCN1CCN(c2ccc(-c3cc4c(N5CCN(C(=O)C6CC6)CC5)ccnc4[nH]3)c(OC(F)F)c2)CC1 [Compound 475]	≤ 0.01	≤ 0.1
CCOC(=O)N1CCN(c2ccnc3[nH]c(-c4ccc(C5(OC)CCN(C(C)CF)CC5)cn4)cc23)CC1 (stereo not shown) [Compound 476]	≤ 0.01	≤ 0.1
CCN1CCN(c2ccc(-c3cc4c(N5CCN(C(=O)C6CC6)CC5)ccnc4[nH]3)c(OC(F)(F)F)c2)CC1 [Compound 477]	≤ 0.01	≤ 0.1
COC1(c2ccc(-c3cc4c(N5CCN(C(=O)OC6COC6)CC5)ccnc4[nH]3)nc2)CCN(C[C@H](C)F)CC1 [Compound 478]	≤ 0.01	≤ 0.1
COC1(c2ccc(-c3cc4c(N5CCN(C(=O)OC6COC6)CC5)ccnc4[nH]3)nc2)CCN(C[C@@H](C)F)CC1 [Compound 479]	≤ 0.01	≤ 0.1
